Assay results from ChEMBL document CHEMBL4152317, “Engineering potent mesotrypsin inhibitors based on the plant-derived cyclic peptide, sunflower trypsin inhibitor-1” (Eur J Med Chem, 2018).
Where a SMILES comes first, the peptide text is derived from it. Bridges are numbered along the chain shown (N, C = ends). [ ]: non-standard residue; d: D form. Bip = N[C@@H](Cc1ccc(-c2ccccc2)cc1)C(=O)O; 2Nal = N[C@@H](Cc1ccc2ccccc2c1)C(=O)O

Tests used:
Serine protease 1 [1] = biological target: T1, Serine protease 1 (Homo sapiens, UniProt P07477); test: Inhibition of human cationic trypsin using Boc-VPR-MCA as substrate measured every 30 secs for 10 mins
T1 sequence (P07477 whole entry): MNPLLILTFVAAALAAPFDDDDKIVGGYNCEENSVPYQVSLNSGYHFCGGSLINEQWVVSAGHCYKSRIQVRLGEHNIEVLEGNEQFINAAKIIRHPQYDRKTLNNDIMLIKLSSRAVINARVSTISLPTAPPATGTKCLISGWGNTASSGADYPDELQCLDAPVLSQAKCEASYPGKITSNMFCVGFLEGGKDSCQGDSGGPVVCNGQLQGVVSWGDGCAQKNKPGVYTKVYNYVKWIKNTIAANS

Trypsin-3 = biological target: T2, Trypsin-3 (Homo sapiens, UniProt P35030); test: Competitive inhibition of recombinant human mesotrypsin using Z-GPR-MCA as substrate measured every 30 secs for 10 mins
T2 sequence (P35030 whole entry): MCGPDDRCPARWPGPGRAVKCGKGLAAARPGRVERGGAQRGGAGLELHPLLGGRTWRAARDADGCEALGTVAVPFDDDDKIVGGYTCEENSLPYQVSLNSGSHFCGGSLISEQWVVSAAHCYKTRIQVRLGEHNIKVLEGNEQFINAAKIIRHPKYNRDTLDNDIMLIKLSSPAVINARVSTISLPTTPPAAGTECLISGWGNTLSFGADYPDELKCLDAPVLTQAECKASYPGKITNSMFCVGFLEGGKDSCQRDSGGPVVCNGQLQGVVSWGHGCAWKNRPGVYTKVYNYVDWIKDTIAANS

Trypsin-3 (Homo sapiens) = biological target: T3, Trypsin-3 (Homo sapiens) (UniProt P35030); test: Potency index, ratio of SFTI-1 Ki to test compound Ki for recombinant human mesotrypsin
T3 sequence (whole entry): T2 sequence (P35030 whole entry)

Serine protease 1 [2] = biological target: T4, Serine protease 1 (Bos taurus, UniProt P00760); test: Inhibition of bovine beta-trypsin using Boc-QAR-MCA as substrate measured every 30 secs for 10 mins
T4 sequence (P00760 whole entry): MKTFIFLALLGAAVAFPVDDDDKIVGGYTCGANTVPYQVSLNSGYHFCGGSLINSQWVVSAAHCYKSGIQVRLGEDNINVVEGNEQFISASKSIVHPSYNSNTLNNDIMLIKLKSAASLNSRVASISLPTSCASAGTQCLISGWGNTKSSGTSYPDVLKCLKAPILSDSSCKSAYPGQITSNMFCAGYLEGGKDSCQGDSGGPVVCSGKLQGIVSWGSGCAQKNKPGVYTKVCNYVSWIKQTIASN

[3] = biological target: Chymotrypsinogen A (Bos taurus) (UniProt P00766); test: Inhibition of bovine alpha-chymotrypsin at 50 uM using Suc-AAPF-MCA as substrate measured every 30 secs for 10 mins relative to control
Chymotrypsinogen A = Chymotrypsinogen A (Bos taurus, UniProt P00766); test: Inhibition of bovine alpha-chymotrypsin using Suc-AAPF-MCA as substrate measured every 30 secs for 10 mins
Prothrombin [4] = biological target: T5, Prothrombin (Homo sapiens, UniProt P00734); test: Inhibition of human alpha thrombin using Boc-VPR-MCA as substrate measured every 30 secs for 10 mins
[5] = biological target: T6, Suppressor of tumorigenicity 14 protein (Homo sapiens) (UniProt Q9Y5Y6); test: Inhibition of recombinant human matriptase at 50 uM using Boc-QAR-MCA as substrate measured every 30 secs for 10 mins relative to control
T6 sequence (whole entry): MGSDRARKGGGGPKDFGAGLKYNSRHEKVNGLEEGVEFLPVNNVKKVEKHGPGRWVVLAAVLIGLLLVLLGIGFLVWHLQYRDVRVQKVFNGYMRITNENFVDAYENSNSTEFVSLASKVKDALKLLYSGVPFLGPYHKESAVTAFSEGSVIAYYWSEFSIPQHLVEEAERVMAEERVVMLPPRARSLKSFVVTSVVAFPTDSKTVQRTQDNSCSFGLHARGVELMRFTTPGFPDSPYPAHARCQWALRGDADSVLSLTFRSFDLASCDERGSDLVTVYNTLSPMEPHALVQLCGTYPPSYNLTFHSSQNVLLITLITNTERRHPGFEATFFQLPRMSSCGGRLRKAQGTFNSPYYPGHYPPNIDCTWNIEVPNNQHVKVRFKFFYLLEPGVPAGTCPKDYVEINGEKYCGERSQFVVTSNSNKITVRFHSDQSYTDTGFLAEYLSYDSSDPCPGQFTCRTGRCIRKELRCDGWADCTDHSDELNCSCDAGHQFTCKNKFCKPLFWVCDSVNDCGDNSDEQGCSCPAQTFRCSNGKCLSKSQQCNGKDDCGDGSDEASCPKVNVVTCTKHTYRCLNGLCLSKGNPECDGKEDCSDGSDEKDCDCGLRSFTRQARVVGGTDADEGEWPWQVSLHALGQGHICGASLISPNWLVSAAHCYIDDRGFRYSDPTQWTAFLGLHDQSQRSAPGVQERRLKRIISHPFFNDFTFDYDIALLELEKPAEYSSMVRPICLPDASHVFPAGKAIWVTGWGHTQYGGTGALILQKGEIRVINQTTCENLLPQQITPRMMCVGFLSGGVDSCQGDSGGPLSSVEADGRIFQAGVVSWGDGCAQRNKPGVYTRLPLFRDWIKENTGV

Serine protease 1 [6] = biological target: T1, Serine protease 1; test: Potency index, ratio of SFTI-1 Ki to test compound Ki for human cationic trypsin
[7] = biological target: T7, Serine protease 1 (Bos taurus) (UniProt P00760); test: Potency index, ratio of SFTI-1 Ki to test compound Ki for bovine beta-trypsin
T7 sequence (whole entry): T4 sequence (P00760 whole entry)

Prothrombin [8] = biological target: T5, Prothrombin; test: Inhibition of human alpha thrombin at 50 uM using Boc-VPR-MCA as substrate measured every 30 secs for 10 mins relative to control
[9] = biological target: T8, Suppressor of tumorigenicity 14 protein (Homo sapiens, UniProt Q9Y5Y6); test: Inhibition of recombinant human matriptase using Boc-QAR-MCA as substrate measured every 30 secs for 10 mins
T8 sequence (Q9Y5Y6 whole entry): T6 sequence (whole entry)

SMILES | Ki (Serine protease 1 [1]) [nM] | Ki (Trypsin-3) [nM] | Ratio Ki (Trypsin-3 (Homo sapiens)) | Ki (Serine protease 1 [2]) [nM] | inhibition [3] [%] | IC50 (Chymotrypsinogen A) [nM] | IC50 (Prothrombin [4]) [nM] | inhibition [5] [%] | Ratio Ki (Serine protease 1 [6]) | Ratio Ki [7] | inhibition (Prothrombin [8]) [%] | IC50 [9] [nM]
CC[C@H](C)[C@@H]1NC(=O)[C@@H]2CCCN2C(=O)[C@@H]2CCCN2C(=O)[C@H]([C@@H](C)CC)NC(=O)[C@H](CO)NC(=O)[C@H](CCCCN)NC(=O)[C@H]([C@@H](C)O)NC(=O)[C@@H]2CSSC[C@H](NC1=O)C(=O)N[C@@H](Cc1ccccc1)C(=O)N1CCC[C@H]1C(=O)N[C@@H](CC(=O)O)C(=O)NCC(=O)N[C@@H](CCCNC(=N)N)C(=O)N2 | 0.03 |  |  |  |  |  |  |  |  |  |  | 
CC[C@H](C)[C@@H]1NC(=O)[C@@H]2CCCN2C(=O)[C@@H]2CCCN2C(=O)[C@H](CC(=O)O)NC(=O)[C@H](CO)NC(=O)[C@H](CCCCN)NC(=O)[C@H]([C@@H](C)O)NC(=O)[C@@H]2CSSC[C@H](NC1=O)C(=O)N[C@@H](Cc1ccccc1)C(=O)N1CCC[C@H]1C(=O)N[C@@H](CC(=O)O)C(=O)NCC(=O)N[C@@H](CCCNC(=N)N)C(=O)N2 (cyclo(CFPDGRCTKSDPPI); disulfide 1-7) |  | 402 | 12 |  |  |  |  |  |  |  |  | 
CC[C@H](C)[C@@H]1NC(=O)[C@@H]2CCCN2C(=O)[C@@H]2CCCN2C(=O)[C@H](Cc2ccccc2)NC(=O)[C@H](CO)NC(=O)[C@H](CCCCN)NC(=O)[C@H]([C@@H](C)O)NC(=O)[C@@H]2CSSC[C@H](NC1=O)C(=O)N[C@@H](Cc1ccccc1)C(=O)N1CCC[C@H]1C(=O)N[C@@H](CC(=O)O)C(=O)NCC(=O)N[C@@H](CCCNC(=N)N)C(=O)N2 (cyclo(CFPDGRCTKSFPPI); disulfide 1-7) |  | 45 | 110 |  |  |  |  |  |  |  |  | 
CC[C@H](C)[C@@H]1NC(=O)[C@@H]2CCCN2C(=O)[C@@H]2CCCN2C(=O)CNC(=O)[C@H](CO)NC(=O)[C@H](CCCCN)NC(=O)[C@H]([C@@H](C)O)NC(=O)[C@@H]2CSSC[C@H](NC1=O)C(=O)N[C@@H](Cc1ccccc1)C(=O)N1CCC[C@H]1C(=O)N[C@@H](CC(=O)O)C(=O)NCC(=O)N[C@@H](CCCNC(=N)N)C(=O)N2 (cyclo(CFPDGRCTKSGPPI); disulfide 1-7) | 49 | 134 | 37 | 81 | < 50 | > 50000 | > 50000 | < 50 | 1630 | 10100 | < 50 | > 50000
CC[C@H](C)[C@@H]1NC(=O)[C@@H]2CCCN2C(=O)[C@@H]2CCCN2C(=O)[C@H](CO)NC(=O)[C@H](CO)NC(=O)[C@H](CCCCN)NC(=O)[C@H]([C@@H](C)O)NC(=O)[C@@H]2CSSC[C@H](NC1=O)C(=O)N[C@@H](Cc1ccccc1)C(=O)N1CCC[C@H]1C(=O)N[C@@H](CC(=O)O)C(=O)NCC(=O)N[C@@H](CCCNC(=N)N)C(=O)N2 (cyclo(CFPDGRCTKSSPPI); disulfide 1-7) |  | 335 | 15 |  |  |  |  |  |  |  |  | 
CC[C@H](C)[C@@H]1NC(=O)[C@@H]2CCCN2C(=O)[C@@H]2CCCN2C(=O)CNC(=O)[C@H](CO)NC(=O)[C@H](CCCNC(=N)N)NC(=O)[C@H]([C@@H](C)O)NC(=O)[C@@H]2CSSC[C@H](NC1=O)C(=O)N[C@@H](Cc1ccccc1)C(=O)N1CCC[C@H]1C(=O)N[C@@H](CC(=O)O)C(=O)NCC(=O)N[C@@H](CCCNC(=N)N)C(=O)N2 (cyclo(CFPDGRCTRSGPPI); disulfide 1-7) | 100 | 369 | 13 | 196 |  |  |  |  | 3330 | 24500 |  | 
CC[C@H](C)[C@@H]1NC(=O)[C@@H]2CCCN2C(=O)[C@@H]2CCCN2C(=O)[C@H](Cc2ccc3ccccc3c2)NC(=O)[C@H](CO)NC(=O)[C@H](CCCCN)NC(=O)[C@H]([C@@H](C)O)NC(=O)[C@@H]2CSSC[C@H](NC1=O)C(=O)N[C@@H](Cc1ccccc1)C(=O)N1CCC[C@H]1C(=O)N[C@@H](CC(=O)O)C(=O)NCC(=O)N[C@@H](CCCNC(=N)N)C(=O)N2 (cyclo([2Nal]PPICFPDGRCTKS); disulfide 5-11) | 0.87 | 26 | 191 | 0.046 |  |  |  |  | 29 | 6 |  | 
CC[C@H](C)[C@@H]1NC(=O)[C@@H]2CCCN2C(=O)[C@@H]2CCCN2C(=O)[C@H](Cc2ccc3ccccc3c2)NC(=O)[C@H](CO)NC(=O)[C@H](CCCNC(=N)N)NC(=O)[C@H]([C@@H](C)O)NC(=O)[C@@H]2CSSC[C@H](NC1=O)C(=O)N[C@@H](Cc1ccccc1)C(=O)N1CCC[C@H]1C(=O)N[C@@H](CC(=O)O)C(=O)NCC(=O)N[C@@H](CCCNC(=N)N)C(=O)N2 (cyclo([2Nal]PPICFPDGRCTRS); disulfide 5-11) | 2.6 | 38 | 131 | 0.23 |  |  |  |  | 87 | 29 |  | 
CC[C@H](C)[C@@H]1NC(=O)[C@@H]2CCCN2C(=O)[C@@H]2CCCN2C(=O)[C@H](Cc2ccc(-c3ccccc3)cc2)NC(=O)[C@H](CO)NC(=O)[C@H](CCCCN)NC(=O)[C@H]([C@@H](C)O)NC(=O)[C@@H]2CSSC[C@H](NC1=O)C(=O)N[C@@H](Cc1ccccc1)C(=O)N1CCC[C@H]1C(=O)N[C@@H](CC(=O)O)C(=O)NCC(=O)N[C@@H](CCCNC(=N)N)C(=O)N2 (cyclo([Bip]PPICFPDGRCTKS); disulfide 5-11) | 0.76 | 35 | 142 | 0.062 |  |  |  |  | 25 | 8 |  | 
CC[C@H](C)[C@@H]1NC(=O)[C@@H]2CCCN2C(=O)[C@@H]2CCCN2C(=O)[C@H](Cc2ccc(-c3ccccc3)cc2)NC(=O)[C@H](CO)NC(=O)[C@H](CCCNC(=N)N)NC(=O)[C@H]([C@@H](C)O)NC(=O)[C@@H]2CSSC[C@H](NC1=O)C(=O)N[C@@H](Cc1ccccc1)C(=O)N1CCC[C@H]1C(=O)N[C@@H](CC(=O)O)C(=O)NCC(=O)N[C@@H](CCCNC(=N)N)C(=O)N2 (cyclo([Bip]PPICFPDGRCTRS); disulfide 5-11) | 1.9 | 28 | 177 | 0.17 |  |  |  |  | 63 | 21 |  | 
